This is an account of results in ChEMBL document CHEMBL3351635, “Novel nitro(triazole/imidazole)-based heteroarylamides/sulfonamides as potential antitrypanosomal agents” (Eur J Med Chem, 2014).

In one data set the test system is L6. Nature of the data set: Cytotoxicity against rat L6 cells after 72 hrs by alamar blue assay. It counts as cell-based. The following applies: L6, 72 h. On the technique in general: The colour change of resazurin is a common sign of viable cells or microbes.
The nature of data set [1]: Selectivity index, ratio of IC50 for rat L6 cells to IC50 for bloodstream forms of Trypanosoma brucei rhodesiense STIB 900. It counts as toxicity, cell-based. The following applies: read-out: Ratio IC50.
The test system of data set [2] is Trypanosoma cruzi. Description: Antiparasitic activity against trypomastigote forms of Trypanosoma cruzi Tulahuen C2C4 infected in rat L6 cells assessed as inhibition of growth after 96 hrs by inverted microscopy. It counts as functional, organism-based. The note with it: Tulahuen C2C4, L6, 96 h.
Data set [3] is described as follows: Selectivity index, ratio of IC50 for rat L6 cells to IC50 for trypomastigote forms of Trypanosoma cruzi Tulahuen C2C4 infected in rat L6 cells. The note with it: read-out: Ratio IC50. It counts as toxicity, cell-based.
Data set [4] has as its system Trypanosoma cruzi. Description: Ratio of benznidazol IC50 to compound IC50 for trypomastigote forms of Trypanosoma cruzi Tulahuen C2C4 infected in rat L6 cells assessed as inhibition of growth after 96 hrs by inverted microscopy. It counts as functional.
Data set [5] deals with Trypanosoma brucei rhodesiense. Nature of the data set: Antiparasitic activity against bloodstream forms of Trypanosoma brucei rhodesiense STIB 900 assessed as inhibition of growth after 72 hrs by resazurin assay. It counts as functional, organism-based. The note with it: STIB 900, 72 h.
For a further data set, the system named is Leishmania donovani. Description: Antiparasitic activity against axenic amastigote forms of Leishmania donovani MHOM/ET/67/L82 assessed as inhibition of growth after 72 hrs by resazurin assay. It counts as functional, organism-based. The note with it: MHOM/ET/67/L82, 72 h.
Data set [6] in a line: Selectivity index, ratio of IC50 for rat L6 cells to IC50 for axenic amastigote forms of Leishmania donovani MHOM/ET/67/L82. It counts as toxicity, cell-based. The note with it: read-out: Ratio IC50.
Data set [7] has as its system Trypanosoma brucei brucei. Nature of the data set: Trypanocidal activity against wild type bloodstream forms of Trypanosoma brucei brucei Lister 427 clone 221a assessed as inhibition of proliferation after 3 days by resazurin assay. It counts as functional, organism-based. The following applies: 72 h.
For data set [8], the system named is Trypanosoma brucei brucei. Nature of the data set: Trypanocidal activity against bloodstream forms of Trypanosoma brucei brucei Lister 427 clone 221a overexpressing type I nitroreductase assessed as inhibition of proliferation after 3 days by resazurin assay in absence of tetracycline. The following applies: 72 h. It counts as functional, organism-based.
Data set [9] deals with Trypanosoma brucei brucei. Nature of the data set: Trypanocidal activity against bloodstream forms of Trypanosoma brucei brucei Lister 427 clone 221a overexpressing type I nitroreductase assessed as inhibition of proliferation after 3 days by resazurin assay in presence of tetracycline. It counts as functional, organism-based. The note with it: 72 h.
Data set [10] has as its system Trypanosoma brucei brucei. Nature of the data set: Ratio of IC50 for bloodstream forms of Trypanosoma brucei brucei Lister 427 clone 221a overexpressing type I nitroreductase in absence of tetracycline to IC50 for bloodstream forms of Trypanosoma brucei brucei Lister 427 clone 221a overexpressing type I nitroreductase in presence of tetracycline. It counts as functional.

As for `O=C(NCCCn1cnc([N+](=O)[O-])n1)c1ccc(C(F)(F)F)nc1`, the IC50 is over 291 µM in the data set with L6 and 3.46 µM in the data set with Trypanosoma cruzi [2]. In addition, the figures for the selectivity ratio in data set [1] and in data set [3] were over 82 and over 84, respectively. The “Ratio IC50” value in the data set with Trypanosoma cruzi [4] came to 0.5.

With `O=[N+]([O-])c1ncn(CCCCNS(=O)(=O)c2ccc(Cl)s2)n1`, the IC50 in the data set with L6 is 128 µM; in data set [5], 0.52 µM; in the data set on Trypanosoma cruzi [2] it was 0.462 µM; in the data set with Leishmania donovani it was 20 µM; in data set [7], 22.9 µM; in data set [8], 21.6 µM. The IC50 in [9] is 0.55 µM. Besides, the selectivity ratio in data set [1] came out at 247; in data set [3], 278; in data set [6], 6. Also, the entries for the “Ratio IC50” value (in [10]; in the data set with Trypanosoma cruzi [4]) were 39.2 and 4.42, respectively.

As for `O=[N+]([O-])c1ncn(CCCNS(=O)(=O)c2cc(Cl)sc2Cl)n1`, the IC50 in the data set on L6 is 119 µM; in data set [5], 1.59 µM; with Trypanosoma cruzi [2], 0.552 µM; in the data set with Leishmania donovani, 17.8 µM; in [7] it was 2.94 µM; in data set [8], 4.25 µM. In addition, the IC50 in data set [9] is 0.22 µM. Moreover, the selectivity ratio in [1] was 75; in data set [3], 216; in data set [6], 7. For the same molecule, the entries for the “Ratio IC50” value (in [10]; in the data set with Trypanosoma cruzi [4]) were 19.3 and 3.7, respectively.

`O=[N+]([O-])c1ncn(CCCNS(=O)(=O)c2cc(Cl)c(Cl)s2)n1`: the IC50 in the data set on L6 is 101 µM; in data set [5], 0.505 µM; in the data set with Trypanosoma cruzi [2] it was 0.158 µM; in the data set with Leishmania donovani, 13.2 µM; in data set [7] it was 15.5 µM; in [8] it was 17 µM. The IC50 in data set [9] came to 0.52 µM. Also, the selectivity ratio was found to be 200 in data set [1], 639 in data set [3] and 8 in data set [6]. Further, the “Ratio IC50” value in [10] was determined as 32.6; in the data set with Trypanosoma cruzi [4] it was 14.31.

On to `O=[N+]([O-])c1ncn(CCCCNS(=O)(=O)c2cc(Cl)c(Cl)s2)n1`, for which the IC50 in the data set with L6 was determined as 97 µM; in data set [5], 0.218 µM; with Trypanosoma cruzi [2], 0.373 µM; in the data set with Leishmania donovani, 10.6 µM; in [7] it was 0.61 µM; in data set [8], 0.46 µM. Also, the IC50 in data set [9] was 0.19 µM. In addition, the selectivity ratio in data set [1] was determined as 447; in [3] it was 261; in [6], 9. Besides, the “Ratio IC50” value in data set [10] was 2.4; with Trypanosoma cruzi [4] it was 6.07.

Take `O=[N+]([O-])c1nccn1CCCNS(=O)(=O)c1cc(Cl)sc1Cl`: the IC50 in the data set on L6 turned out to be 108 µM; in data set [5], 40.3 µM; in the data set with Trypanosoma cruzi [2], 6.99 µM; in the data set with Leishmania donovani, 13.1 µM. The selectivity ratio in data set [1] was 3; in data set [3] it was 15; in [6] it was 8. Moreover, the “Ratio IC50” value in the data set with Trypanosoma cruzi [4] is recorded as 0.32.

As to `O=[N+]([O-])c1nccn1CCCNS(=O)(=O)c1cc(Cl)c(Cl)s1`, the IC50 was found to be 75 µM in the data set on L6, 32.7 µM in data set [5], 4.75 µM in the data set with Trypanosoma cruzi [2] and 7.35 µM with Leishmania donovani. In addition, the selectivity ratio in [1] is 2; in [3], 16; in data set [6], 10. In the data set with Trypanosoma cruzi [4], the “Ratio IC50” value is 0.48.

In the case of `Cc1csc(C(=O)NCCCn2cnc([N+](=O)[O-])n2)c1`, the IC50 with L6 is 173 µM; in [5], 0.98 µM; in the data set on Trypanosoma cruzi [2], 2.55 µM; in the data set on Leishmania donovani, 46.1 µM; in data set [7], 9.69 µM; in data set [8], 6.34 µM. For the same molecule, the IC50 in [9] was determined as 0.33 µM. In addition, the selectivity ratio in data set [1] stood at 176; in [3], 68; in data set [6], 4. The “Ratio IC50” value was found to be 19.2 in data set [10] and 0.8 with Trypanosoma cruzi [4].

Regarding `O=C(NCCCn1cnc([N+](=O)[O-])n1)c1ccsc1`, the IC50 was over 356 µM with L6; 0.915 µM in data set [5]; 3.99 µM in the data set on Trypanosoma cruzi [2]; 71.2 µM with Leishmania donovani; 26.8 µM in data set [7]; 21.2 µM in data set [8]. Besides, the IC50 in data set [9] worked out at 0.29 µM. Also, the selectivity ratio was over 389 in [1], over 89 in [3] and over 5 in [6]. In addition, the “Ratio IC50” value in data set [10] stood at 73; in the data set on Trypanosoma cruzi [4] it was 0.57.

For `O=C(NCCCCn1cnc([N+](=O)[O-])n1)c1ccsc1`, the IC50 in the data set on L6 is over 339 µM; in [5], 0.81 µM; with Trypanosoma cruzi [2], 1.75 µM; with Leishmania donovani, 27.7 µM; in [7], 3.02 µM; in data set [8], 2.49 µM. The IC50 in [9] was found to be 0.31 µM. Also, the selectivity ratio is over 418 in data set [1], over 194 in data set [3] and over 12 in data set [6]. For the same molecule, the “Ratio IC50” value is 8 in data set [10] and 1.3 in the data set on Trypanosoma cruzi [4].

As to `Cc1cc(C(=O)NCCCn2cnc([N+](=O)[O-])n2)c(C)o1`, the IC50 with L6 was over 341 µM; in data set [5] it was 4.71 µM; with Trypanosoma cruzi [2] it was 8.87 µM; in the data set with Leishmania donovani it was 132 µM. In addition, the selectivity ratio in [1] is over 73; in [3], over 39; in data set [6], over 3. Moreover, the “Ratio IC50” value in the data set with Trypanosoma cruzi [4] was determined as 0.25.

On to `Cc1ccoc1C(=O)NCCCn1cnc([N+](=O)[O-])n1`, for which the IC50 in the data set with L6 was over 358 µM; in [5], 16.4 µM; in the data set on Trypanosoma cruzi [2] it was 30.4 µM; in the data set on Leishmania donovani it was 139 µM. Also, the selectivity ratio is over 22 in data set [1], over 12 in data set [3] and over 3 in data set [6]. The “Ratio IC50” value with Trypanosoma cruzi [4] came to 0.07.

Turning to `Cc1nc([N+](=O)[O-])cn1CCCNS(=O)(=O)c1ccc(Cl)s1`, the half-maximal inhibitory concentration (IC50) with L6 turned out to be 261 µM; in data set [5], 47.2 µM; in the data set with Trypanosoma cruzi [2], 102 µM. The selectivity ratio was found to be 6 in data set [1] and 3 in data set [3]. In addition, in the data set with Trypanosoma cruzi [4], the “Ratio IC50” value worked out at 0.02.

Take `Cc1nc([N+](=O)[O-])cn1CCCNC(=O)c1nc2ccccc2s1`: the figures for the IC50 (with L6; in [5]; with Trypanosoma cruzi [2]) were over 290 µM, 173 µM and 105 µM, respectively. The selectivity ratio in data set [1] was 2; in data set [3], over 3. Besides, the “Ratio IC50” value with Trypanosoma cruzi [4] stood at 0.01.

`Cc1nc([N+](=O)[O-])cn1CCCNC(=O)c1sc2ccccc2c1Cl`: the IC50 in the data set with L6 stood at 189 µM; in data set [5], 39.4 µM; in the data set with Trypanosoma cruzi [2], 32.2 µM. For the same molecule, the selectivity ratio in [1] amounted to 5; in data set [3], 6. Further, the “Ratio IC50” value in the data set on Trypanosoma cruzi [4] was 0.05.

`O=C(Cn1ccnc1[N+](=O)[O-])NCc1ccccc1` [BENZNIDAZOLE]: the IC50 with Trypanosoma cruzi [2] turned out to be 2.13 µM. Moreover, the “Ratio IC50” value in data set [10] is reported as 9.9.

On to `Nc1nc(N)nc(Nc2ccc([As]3SCC(CO)S3)cc2)n1` (stereo not given) [MELARSOPROL], for which, in [7], the IC50 came out at 0.006 µM. The “Ratio IC50” value in [10] came to 1.

For the molecule `CCCCCCCCCCCCCCCCOP(=O)([O-])OCC[N+](C)(C)C` [MILTEFOSINE], in the data set with Leishmania donovani, the IC50 amounted to 0.39 µM.

`CC1CS(=O)(=O)CCN1/N=C/c1ccc([N+](=O)[O-])o1` (stereo not given) [NIFURTIMOX]: in [10], the “Ratio IC50” value came to 13.2.

The IC50 is the point on the concentration scale where inhibition reaches its midpoint.
